What was measured:
DAPK1 = target: T1, DAPK1 (Homo sapiens, UniProt P53355); assay: In vitro kinase inhibition assay (HotSpot, Reaction Biology); type: biochemical; conditions: single dose of 10 µM; read-out: Percent Inhibition, DAPK1
T1 construct: purchased Reaction Biology Corp
Experimental: (§1) The in vitro kinase inhibition assay was carried out by Reaction Biology Corp. (Reaction Biology Corp., Chester, PA, USA) Kinase HotSpot^SM service (http://www.reactionbiology.com, accessed on 15 January 2021), following the previously reported methods. (For details, see Supplementary Material).
(§2) As mentioned in the introduction, to get insights about the kinase inhibition profile of the hybrid small molecule 5a, an in vitro screening over a panel of 14 cancer-related kinases was carried out. Accordingly, 10 µM concentrations of compound 5a were used in a kinase inhibition assay over various kinase groups and families in the presence of 10 µM ATP using HotSpotSM technology. To get a comprehensive picture of the inhibitory activities of the tested compound (5a) against the kinase panel, data are illustrated in Table 1. […] Compound 5a was also able to suppress the kinase activity of the epidermal growth factor receptor (EGFR), platelet-derived growth factor receptor-alpha (PDGFRα), and cyclin-dependent kinase 2 (CDK2) with modest inhibition values of 26.99 ± 0.9, 24.0 ± 0.4, and 20.1 ± 0.1%, respectively. […] Several studies have confirmed direct relationships between the most affected kinases (FMS, LCK, LYN, and DAPK1) and different human disorders including cancer.
(§3) 5. Protocol of Kinase assay
(§4) Kinases inhibitory activities were assessed by the HotSpot assay platform, which contained specific kinase/substrate pairs along with required cofactors. Base reaction buffer: 20 mM Hepes (pH 7.5), 10 mM MgCl2, 1 mM EGTA, 0.02% Brij35, 0.02 mg/ml BSA, 0.1 mM Na3VO4, 2 mM DTT, 1% DMSO. Testing compounds were dissolved in 100% DMSO to specific concentration. The serial dilution was conducted by Integra Viaflo Assist in DMSO. The reaction mixture containing the examined compound and 33P-ATP was incubated at room temperature for 2h and radioactivity was detected by filter-binding method. Kinase activity data were expressed as the percent remaining kinase activity in test samples compared to vehicle (dimethyl sulfoxide) reactions. IC50 values and curve fits were obtained using Prism (GraphPad Software).
(§5) 6. Biology raw data for IC50 determination
(§6) Paper ID Cpd ID NSC Number

LYN = target: T2, LYN (Homo sapiens, UniProt P07948); assay: as above; type: biochemical
T2 construct: purchased Reaction Biology Corp
T2 sequence (P07948 whole entry): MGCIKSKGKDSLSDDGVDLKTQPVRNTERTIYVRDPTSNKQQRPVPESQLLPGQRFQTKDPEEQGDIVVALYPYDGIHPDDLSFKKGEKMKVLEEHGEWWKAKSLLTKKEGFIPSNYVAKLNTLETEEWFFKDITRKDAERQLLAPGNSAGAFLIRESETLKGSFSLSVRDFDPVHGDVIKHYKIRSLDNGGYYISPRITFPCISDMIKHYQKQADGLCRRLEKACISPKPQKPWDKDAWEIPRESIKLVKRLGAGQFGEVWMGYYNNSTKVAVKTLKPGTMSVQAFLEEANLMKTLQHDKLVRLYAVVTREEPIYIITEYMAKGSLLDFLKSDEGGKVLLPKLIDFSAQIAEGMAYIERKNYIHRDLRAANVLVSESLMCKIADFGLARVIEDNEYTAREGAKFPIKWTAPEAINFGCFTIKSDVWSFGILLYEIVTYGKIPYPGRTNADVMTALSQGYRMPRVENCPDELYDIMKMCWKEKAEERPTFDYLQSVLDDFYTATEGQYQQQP
Experimental: as §1, §2, §3, §4, §5, §6

LCK = target: T3, LCK (Homo sapiens, UniProt P06239); assay: as above; type: biochemical
T3 construct: purchased Reaction Biology Corp
T3 sequence (P06239 whole entry): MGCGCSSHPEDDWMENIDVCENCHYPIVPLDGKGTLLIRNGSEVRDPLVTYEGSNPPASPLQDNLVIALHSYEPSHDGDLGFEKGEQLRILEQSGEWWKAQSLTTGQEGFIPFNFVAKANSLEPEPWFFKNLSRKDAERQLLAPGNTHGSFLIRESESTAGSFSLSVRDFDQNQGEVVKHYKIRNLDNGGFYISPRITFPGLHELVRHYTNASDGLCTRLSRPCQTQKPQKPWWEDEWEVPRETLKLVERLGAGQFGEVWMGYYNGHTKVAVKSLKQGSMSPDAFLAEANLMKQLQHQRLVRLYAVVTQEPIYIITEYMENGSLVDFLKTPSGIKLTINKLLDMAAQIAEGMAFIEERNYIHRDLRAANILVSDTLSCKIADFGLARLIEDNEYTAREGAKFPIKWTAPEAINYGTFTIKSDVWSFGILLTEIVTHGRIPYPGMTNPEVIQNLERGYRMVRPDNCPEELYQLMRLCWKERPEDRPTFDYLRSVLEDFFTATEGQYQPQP
Experimental: as §1, §2, §3, §4, §5, §6

COLO 205 = assay: NCI growth inhibition (SRB) assay; type: cell-based; conditions: Homo sapiens, COLO 205, Colon Cancer, single dose 10 µM, 48 h, read-out: Percent Growth Inhibition (GI)
Experimental: (§7) The antitumor assay was performed according to the protocol of the Drug Evaluation Branch, NCI, Bethesda. A 48 h drug exposure protocol was adopted, and sulforhodamine B (SRB) assay was utilized to assess the cell growth and viability, as reported earlier.
(§8) The inhibition results of tumor cell growth by the newly synthesized compounds (5a–5g) are described in Table 4. The reported measurements have been performed at the NIH National Cancer Institute, USA by a standardized assay including a panel of 60 different tumor cell lines (Supplementary Data). The following cancer cell types were included in these assays: Leukemia, non-small cell lung cancer, colon cancer, CNS cancer, melanoma, ovarian cancer, renal cancer, prostate, and breast cancer. […] Additionally, the 3,4-dimethoxy substituted compound (5b) also suffered poor activity against the cancer cell lines.

RPMI-8226 = assay: NCI growth inhibition (SRB) assay; type: cell-based; conditions: Homo sapiens, RPMI-8226, Leukemia, single dose 10 µM, 48 h, read-out: Percent Growth Inhibition (GI)
Experimental: as §7, §8

PC-3 = assay: NCI growth inhibition (SRB) assay; type: cell-based; conditions: Homo sapiens, PC-3, Prostate Cancer, single dose 10 µM, 48 h, read-out: Percent Growth Inhibition (GI)
Experimental: as §7, §8

SNB-75 = assay: NCI growth inhibition (SRB) assay; type: cell-based; conditions: Homo sapiens, SNB-75, CNS Cancer, single dose 10 µM, 48 h, read-out: Percent Growth Inhibition (GI)
Experimental: as §7, §8

CCRF-CEM = assay: NCI growth inhibition (SRB) assay; type: cell-based; conditions: Homo sapiens, Leukemia, single dose 10 µM, 48 h, read-out: Percent Growth Inhibition (GI)
Experimental: as §7, §8

HT29 = assay: NCI growth inhibition (SRB) assay; type: cell-based; conditions: Homo sapiens, HT-29, HT29, Colon Cancer, single dose 10 µM, 48 h, read-out: Percent Growth Inhibition (GI)
Experimental: as §7, §8

UACC-62 = assay: NCI growth inhibition (SRB) assay; type: cell-based; conditions: Homo sapiens, UACC-62, Melanoma, single dose 10 µM, 48 h, read-out: Percent Growth Inhibition (GI)
Experimental: as §7, §8

A498 = assay: NCI growth inhibition (SRB) assay; type: cell-based; conditions: Homo sapiens, A498, Renal Cancer, single dose 10 µM, 48 h, read-out: Percent Growth Inhibition (GI)
Experimental: as §7, §8

MCF7 = assay: NCI growth inhibition (SRB) assay; type: cell-based; conditions: Homo sapiens, MCF7, Breast Cancer, single dose 10 µM, 48 h, read-out: Percent Growth Inhibition (GI)
Experimental: as §7, §8

UO-31 = assay: NCI growth inhibition (SRB) assay; type: cell-based; conditions: Homo sapiens, UO-31, Renal Cancer, single dose 10 µM, 48 h, read-out: Percent Growth Inhibition (GI)
Experimental: as §7, §8

HOP-92 = assay: NCI growth inhibition (SRB) assay; type: cell-based; conditions: Homo sapiens, HOP-92, Non-Small Cell Lung Cancer, single dose 10 µM, 48 h, read-out: Percent Growth Inhibition (GI)
Experimental: as §7, §8

CAKI-1 = assay: NCI growth inhibition (SRB) assay; type: cell-based; conditions: Homo sapiens, CAKI-1, Renal Cancer, single dose 10 µM, 48 h, read-out: Percent Growth Inhibition (GI)
Experimental: as §7, §8

RXF 393 = assay: NCI growth inhibition (SRB) assay; type: cell-based; conditions: RXF 393, Renal Cancer, single dose 10 µM
Experimental: as §7, §8

HCT-15 = assay: NCI growth inhibition (SRB) assay; type: cell-based; conditions: Homo sapiens, HCT-15, Colon Cancer, single dose 10 µM, 48 h, read-out: Percent Growth Inhibition (GI)
Experimental: as §7, §8

SF-539 = assay: NCI growth inhibition (SRB) assay; type: cell-based; conditions: Homo sapiens, SF-539, CNS Cancer, single dose 10 µM, 48 h, read-out: Percent Growth Inhibition (GI)
Experimental: as §7, §8

NCI-H522 = assay: NCI growth inhibition (SRB) assay; type: cell-based; conditions: Homo sapiens, NCI-H522, Non-Small Cell Lung Cancer, single dose 10 µM, 48 h, read-out: Percent Growth Inhibition (GI)
Experimental: as §7, §8

[1] = 10-dose, 3-fold serial dilution starting at 100 μM

T1 sequence (P53355 whole entry): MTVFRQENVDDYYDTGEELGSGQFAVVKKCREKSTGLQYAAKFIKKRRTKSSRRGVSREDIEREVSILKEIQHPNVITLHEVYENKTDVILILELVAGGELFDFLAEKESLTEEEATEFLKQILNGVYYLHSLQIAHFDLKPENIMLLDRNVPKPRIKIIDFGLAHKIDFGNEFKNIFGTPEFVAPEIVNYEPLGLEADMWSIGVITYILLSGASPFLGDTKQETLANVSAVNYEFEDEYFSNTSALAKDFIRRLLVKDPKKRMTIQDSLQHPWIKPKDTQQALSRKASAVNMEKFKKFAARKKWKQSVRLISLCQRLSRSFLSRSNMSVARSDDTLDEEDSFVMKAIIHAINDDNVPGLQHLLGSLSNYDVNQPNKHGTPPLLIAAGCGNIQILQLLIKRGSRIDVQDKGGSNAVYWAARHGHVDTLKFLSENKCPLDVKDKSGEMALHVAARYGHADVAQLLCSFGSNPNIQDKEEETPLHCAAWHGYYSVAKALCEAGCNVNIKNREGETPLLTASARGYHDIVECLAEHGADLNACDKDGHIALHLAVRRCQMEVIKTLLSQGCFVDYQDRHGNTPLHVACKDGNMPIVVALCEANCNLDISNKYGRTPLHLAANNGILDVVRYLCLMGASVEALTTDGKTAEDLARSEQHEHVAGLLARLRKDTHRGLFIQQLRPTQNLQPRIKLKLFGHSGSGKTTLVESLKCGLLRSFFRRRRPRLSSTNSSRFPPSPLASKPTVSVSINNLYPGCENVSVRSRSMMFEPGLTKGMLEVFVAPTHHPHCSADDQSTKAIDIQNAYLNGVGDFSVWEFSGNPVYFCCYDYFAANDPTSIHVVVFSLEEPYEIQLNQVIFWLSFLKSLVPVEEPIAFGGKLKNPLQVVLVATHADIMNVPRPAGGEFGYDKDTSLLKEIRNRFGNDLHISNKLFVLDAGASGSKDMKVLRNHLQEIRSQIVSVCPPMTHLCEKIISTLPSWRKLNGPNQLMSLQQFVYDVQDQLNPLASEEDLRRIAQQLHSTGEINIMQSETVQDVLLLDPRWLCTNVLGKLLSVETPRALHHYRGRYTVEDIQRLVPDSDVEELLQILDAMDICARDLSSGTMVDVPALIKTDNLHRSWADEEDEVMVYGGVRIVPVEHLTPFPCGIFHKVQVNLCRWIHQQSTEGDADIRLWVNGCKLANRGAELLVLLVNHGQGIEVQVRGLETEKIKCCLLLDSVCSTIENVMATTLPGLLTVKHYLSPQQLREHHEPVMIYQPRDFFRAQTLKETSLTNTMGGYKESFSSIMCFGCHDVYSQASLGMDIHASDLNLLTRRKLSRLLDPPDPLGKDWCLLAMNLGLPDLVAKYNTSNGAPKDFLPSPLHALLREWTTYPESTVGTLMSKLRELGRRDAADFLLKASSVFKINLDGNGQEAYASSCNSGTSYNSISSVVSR

`COc1ccc(Oc2nc(Nc3ccc(N4CCOCC4)cc3)ncc2NC(=O)c2cccc(SC)c2)cc1` [5g, N-(4-(4-Methoxyphenoxy)-2-((4-morpholinophenyl)amino)pyrimidin-5-yl)-3-(methylthio)benzamide] was tested, and the inhibition at 10 µM (DAPK1) was 54.6 ± 0.8%, the IC50 (LYN; [1]) was 169 ± 31 nM and the inhibition at 10 µM (LYN; single dose of 10 µM, 10 µM ATP as printed, read-out: Percent Inhibition, LYN) was 96.4 ± 0.1%. For the same compound, the IC50 (LCK; [1]) was 87.7 ± 8.3 nM, the “fold more potent than imatinib over LCK” value (LCK; from IC50 values) was ~2 fold and the inhibition at 10 µM (LCK; single dose of 10 µM, 10 µM ATP as printed, read-out: Percent Inhibition, LCK) was 96.9 ± 0.3%. The inhibition at 10 µM (COLO 205) was 4.7%, the inhibition at 10 µM (RPMI-8226) was 20.5% and the inhibition at 10 µM (PC-3) was 24.9%. For the same compound, the inhibition at 10 µM (SNB-75) was 21.5%, the inhibition at 10 µM (CCRF-CEM) was 13% and the inhibition at 10 µM (HT29) was 24.3%. The inhibition at 10 µM (UACC-62) was 14.7%, the inhibition at 10 µM (A498) was 18.9% and the inhibition at 10 µM (MCF7) was 21.5%. The inhibition at 10 µM (UO-31) was 43.7%, the inhibition at 10 µM (HOP-92) was 20.2% and the inhibition at 10 µM (CAKI-1) was 29.4%. For the same compound, the inhibition at 10 µM (RXF 393; Homo sapiens, RXF 393, 48 h, read-out: Percent Growth Inhibition (GI)) was 70%, the “Percent Growth Inhibition (GI)” value (RXF 393; 48 h) was 70.1% and the inhibition at 10 µM (HCT-15) was 31.7%. It also gave an inhibition at 10 µM (SF-539) of 21.1% and an inhibition at 10 µM (NCI-H522) of 26.4%.

Source: PMC8468039, “Development of New Meridianin/Leucettine-Derived Hybrid Small Molecules as Nanomolar Multi-Kinase Inhibitors with Antitumor Activity” (Biomedicines, 2021)
